Literature values as cited in patent US20170273596A1, “METHOD FOR MONITORING SWALLOWING” (NESTEC S.A., priority 2014, published 2017).

Experiments:
[1] = database Episuite 4.1
[2] = database Episuite 4.1; remark: listed apart in the source

2-Methylpropanal
Volatility: Air/water partition coefficient log K [w/v] [1]: −2.31

CC(=O)C(C)=O [2,3-Butanedione]
Lipophilicity: Oil/Water partition coefficient log Kow [w/v] [2]: −1.34 | Volatility: Air/water partition coefficient log K [w/v] [1]: −5.09

CCC(=O)C(C)=O [2,3-Pentanedione]
Lipophilicity: Oil/Water partition coefficient log Kow [w/v] [2]: −0.85 | Volatility: Air/water partition coefficient log K [w/v] [1]: −4.97

CCC(C)C=O (stereo not drawn) [2-Methylbutanal]
Lipophilicity: Oil/Water partition coefficient log Kow [w/v] [2]: 1.23 | Volatility: Air/water partition coefficient log K [w/v] [1]: −2.20

CC(C)CC=O [3-Methylbutanal]
Lipophilicity: Oil/Water partition coefficient log Kow [w/v] [2]: 1.23 | Volatility: Air/water partition coefficient log K [w/v] [1]: −2.19

CC=O [Acetaldehyde]
Lipophilicity: Oil/Water partition coefficient log Kow [w/v] [2]: −0.17 | Volatility: Air/water partition coefficient log K [w/v] [1]: −2.56

CSC [Dimethylsulfide]
Lipophilicity: Oil/Water partition coefficient log Kow [w/v] [2]: 0.92 | Volatility: Air/water partition coefficient log K [w/v] [1]: −1.49

CCCC(=O)OCC [Ethylbutyrate]
Lipophilicity: Oil/Water partition coefficient log Kow [w/v] [2]: 1.85 | Volatility: Air/water partition coefficient log K [w/v] [1]: −1.79

C=C(C)[C@H]1CC=C(C)CC1 [Limonene]
Lipophilicity: Oil/Water partition coefficient log Kow [w/v] [2]: 4.38 | Volatility: Air/water partition coefficient log K [w/v] [1]: 0.12

CS [Methanethiol]
Lipophilicity: Oil/Water partition coefficient log Kow [w/v] [2]: 0.78 | Volatility: Air/water partition coefficient log K [w/v] [1]: −0.97

COc1cc(C=O)ccc1O [Vanillin]
Lipophilicity: Oil/Water partition coefficient log Kow [w/v] [2]: 1.05 | Volatility: Air/water partition coefficient log K [w/v] [1]: −8.47
